Laboratory results: US7384931B2, “Constrained compounds as CGRP-receptor antagonists” (Bristol-Myers Squibb Company, priority 2004, dated 2008)

Key:
CGRP receptor [1] = target: T1, CGRP receptor (Homo sapiens, UniProt O60894+Q16602); test: Cyclic AMP functional antagonism assay in SK-N-MC cells; format: cell-based; design: SK—N-MC cells that endogenously express the human CGRP receptor; endogenous in cells; host or cells: SK-N-MC cells; conditions: inhibition of 0.3 nM CGRP-induced cyclic AMP formation, 15 min pre-incubation, read-out: cAMP Function IC50
Method: Cyclic AMP Functional Antagonism Assay. Antagonism of the compounds of invention was determined by measuring the formation of cyclic AMP (adenosine 3′5′-cyclic monophosphate) in SK—N-MC cells that endogenously express the human CGRP receptor. CGRP receptor complex is coupled with Gs protein and CGRP binding to this complex leads to the cyclic AMP production via Gs—dependent activation of an adenylate cyclase (Juaneda C et al., TiPS, 2000; 21:432-438; incorporated by reference herein). Consequently, CGRP receptor antagonists inhibit CGRP—induced cyclic AMP formation in SK—N-MC cells (Doods H et al., Br J Pharmacol, 2000; 129(3):420-423); incorporated by reference herein). For cyclic AMP measurements SK—N-MC cells were incubated with 0.3 nM CGRP alone or in the presence of various concentrations of the compounds of invention for 30 min at room temperature. Compounds of invention were pre-incubated with SK—N-MC cells for 15 min before the addition of CGRP to allow receptor occupancy (Edvinsson et al., Eur J Pharmacol, 2001, 415:39-44; incorporated by reference herein). Cyclic AMP was extracted using the lysis reagent and its concentration was determined by radioimmunoassay using RPA559 cAMP SPA Direct Screening Assay Kit (Amersham Pharmacia Biotech). IC50 values were calculated using Excel fit.

CGRP receptor [2] = target: T1, CGRP receptor; test: CGRP radioligand binding assay ([125I]-CGRP displacement, SK-N-MC homogenate); design: endogenous in cells; host or cells: SK-N-MC cells (homogenate/membrane pellet); conditions: displacement of [125I]-CGRP, room temperature 2 h
Summary of the method: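 SK-N-MC cell homogenate (5 μg/well) was incubated 2 h at room temperature with [125I]-CGRP (diluted to 60 pM before addition) in 50 mM Tris-Cl pH 7.5, 5 mM MgCl2, 0.005% Triton X-100 plus protease inhibitors. Bound radioactivity was collected by filtration; 1 μM beta-CGRP defined non-specific binding. IC50 is 50% radioligand displacement.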

T1 sequence (Q16602 23-461): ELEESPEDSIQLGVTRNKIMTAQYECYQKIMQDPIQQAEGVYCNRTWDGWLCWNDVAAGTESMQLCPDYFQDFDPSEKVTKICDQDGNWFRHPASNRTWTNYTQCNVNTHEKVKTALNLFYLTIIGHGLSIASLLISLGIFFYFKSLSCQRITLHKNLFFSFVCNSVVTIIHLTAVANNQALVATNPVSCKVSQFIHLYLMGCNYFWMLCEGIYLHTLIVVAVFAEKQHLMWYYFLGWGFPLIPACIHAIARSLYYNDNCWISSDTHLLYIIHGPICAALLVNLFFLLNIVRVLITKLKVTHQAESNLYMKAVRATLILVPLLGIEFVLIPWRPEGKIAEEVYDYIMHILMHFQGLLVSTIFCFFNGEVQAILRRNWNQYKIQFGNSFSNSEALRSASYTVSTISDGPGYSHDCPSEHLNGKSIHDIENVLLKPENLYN
T1 sequence (O60894 27-148): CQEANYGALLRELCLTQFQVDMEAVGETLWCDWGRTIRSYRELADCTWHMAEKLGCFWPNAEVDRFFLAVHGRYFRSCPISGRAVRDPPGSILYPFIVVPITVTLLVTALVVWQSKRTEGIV

Row | Compound | IC50 (CGRP receptor [1]) [nM] | IC50 (CGRP receptor [2]) [nM]
1 | CC(C)(C)CN1Cc2c(cc(Cl)c3[nH]ncc23)C[C@@H](NC(=O)N2CCC(N3Cc4ccccc4NC3=O)CC2)C1=O [Example 20, 4-(2-Oxo-1,4-dihydro-2H-quinazolin-3-yl)-piperidine-1-carboxylic acid [4-chloro-9-(2,2-dimethyl-propyl)-8-oxo-3,6,7,8,9,10-hexahydro-2,3,9-triaza-(R)-cyclohepta[e]inden-7-yl]-amide] | 0.1 to 10 | 0.1 to 10
2 | CC(C)(C)CN1Cc2c(cc(Cl)c3[nH]ncc23)C[C@@H](CC(=O)N2CCC(N3Cc4ccccc4NC3=O)CC2)C1=O [Example 21, 4-Chloro-9-(2,2-dimethyl-propyl)-7-(S)-{2-oxo-2-[4-(2-oxo-1,4-dihydro-2H-quinazolin-3-yl)-piperidin-1-yl]-ethyl}-6,7,9,10-tetrahydro-3H-2,3,9-triaza-cyclohepta[e]inden-8-one] | 0.1 to 10 | 0.1 to 10
3 | CC(C)(C)CN1Cc2c(ccc3[nH]ncc23)CC(NC(=O)N2CCC(N3Cc4ccccc4NC3=O)CC2)C1=O (stereo not drawn) [Example 22, 4-(2-Oxo-1,4-dihydro-2H-quinazolin-3-yl)-piperidine-1-carboxylic acid [9-(2,2-dimethyl-propyl)-8-oxo-3,6,7,8,9,10-hexahydro-2,3,9-triaza-cyclohepta[e]inden-7-yl]-amide] | 0.1 to 10 | 0.1 to 10
4 | CC(C)CN1Cc2c(ccc3[nH]ncc23)CC(NC(=O)N2CCC(N3Cc4ccccc4NC3=O)CC2)C1=O (stereo not drawn) [Example 24, 4-(2-Oxo-1,4-dihydro-2H-quinazolin-3-yl)-piperidine-1-carboxylic acid (9-isobutyl-8-oxo-3,6,7,8,9,10-hexahydro-2,3,9-triaza-cyclohepta[e]inden-7-yl)-amide] | 10 to 100 | 10 to 100
5 | O=C(NC1Cc2ccc3[nH]ncc3c2CN(Cc2ccncc2)C1=O)N1CCC(N2Cc3ccccc3NC2=O)CC1 (stereo not drawn) [Example 28, 4-(2-Oxo-1,4-dihydro-2H-quinazolin-3-yl)-piperidine-1-carboxylic acid (8-oxo-9-pyridin-4-ylmethyl-3,6,7,8,9,10-hexahydro-2,3,9-triaza-cyclohepta[e]inden-7-yl)-amide] | 10 to 100 | 10 to 100
6 | Cc1cc2c(c3cn[nH]c13)CN(C)C(=O)C(NC(=O)N1CCC(N3Cc4ccccc4NC3=O)CC1)C2 (stereo not drawn) [Example 30, 4-(2-Oxo-1,4-dihydro-2H-quinazolin-3-yl)-piperidine-1-carboxylic acid (4,9-dimethyl-8-oxo-3,6,7,8,9,10-hexahydro-2,3,9-triaza-cyclohepta[e]inden-7-yl)-amide] | 10 to 100 | 10 to 100
7 | O=C(N[C@@H]1Cc2cc3cn[nH]c3cc2CN(Cc2ccccc2)C1=O)N1CCC(N2Cc3ccccc3NC2=O)CC1 [Example 37, (R)-N-(8-Benzyl-7-oxo-1,5,6,7,8,9-hexahydroazepino[4,3-f]indazol-6-yl)-4-(2-oxo-1,2-dihydroquinazolin-3(4H)-yl)piperidine-1-carboxamide] | 10 to 100 | 0.1 to 10

Other lines, results leading:

Row | IC50 (CGRP receptor [1]) [nM] | IC50 (CGRP receptor [2]) [nM] | Compound
8 | 10 to 100 | 10 to 100 | CC(C)(C)CN1Cc2c(ccc3[nH]ncc23)C[C@@H](CC(=O)N2CCC(N3Cc4cccc(F)c4NC3=O)CC2)C1=O [Example 39, (S)-7-(2-(4-(8-Fluoro-2-oxo-1,2-dihydroquinazolin-3(4H)-yl)piperidin-1-yl)-2-oxoethyl)-9-neopentyl-6,7,9,10-tetrahydroazepino[3,4-e]indazol-8(3H)-one]
9 | 0.1 to 10 | 0.1 to 10 | CC(C)(C)CN1Cc2c(cc(Cl)c3[nH]ncc23)C[C@@H](CC(=O)N2CCC(N3Cc4cccc(F)c4NC3=O)CC2)C1=O [Example 40, (S)-4-Chloro-7-(2-(4-(8-fluoro-2-oxo-1,2-dihydroquinazolin-3(4H)-yl)piperidin-1-yl)-2-oxoethyl)-9-neopentyl-6,7,9,10-tetrahydroazepino[3,4-e]indazol-8(3H)-one]
10 | 0.1 to 10 | 0.1 to 10 | CC(C)(C)CN1Cc2c(cc(Cl)c3[nH]ncc23)C[C@@H](CC(=O)N2CCC(N3Cc4ccccc4CC3=O)CC2)C1=O [Example 41, (S)-4-Chloro-9-neopentyl-7-(2-oxo-2-(4-(3-oxo-3,4-dihydroisoquinolin-2(1H)-yl)piperidin-1-yl)ethyl)-6,7,9,10-tetrahydroazepino[3,4-e]indazol-8(3H)-one]
11 | 10 to 100 | 10 to 100 | CC(C)(C)CN1Cc2c(ccc3[nH]ncc23)C[C@@H](CC(=O)N2CCC(c3cc4ccccc4[nH]c3=O)CC2)C1=O [Example 42, (S)-9-Neopentyl-7-(2-oxo-2-(4-(2-oxo-1,2-dihydroquinolin-3-yl)piperidin-1-yl)ethyl)-6,7,9,10-tetrahydroazepino[3,4-e]indazol-8(3H)-one]
12 | 0.1 to 10 | 0.1 to 10 | CC(C)(C)CN1Cc2c(cc(Cl)c3[nH]ncc23)C[C@@H](CC(=O)N2CCC(c3cc4ccccc4[nH]c3=O)CC2)C1=O [Example 43, (S)-4-Chloro-9-neopentyl-7-(2-oxo-2-(4-(2-oxo-1,2-dihydroquinolin-3-yl)piperidin-1-yl)ethyl)-6,7,9,10-tetrahydroazepino[3,4-e]indazol-8(3H)-one]
13 | 0.1 to 10 | 0.1 to 10 | CC(C)(C)CN1Cc2c(cc(Cl)c3[nH]ncc23)C[C@@H](CC(=O)N2CCC(n3cc(-c4ccccc4)[nH]c3=O)CC2)C1=O [Example 44, (S)-4-Chloro-9-neopentyl-7-(2-oxo-2-(4-(2-oxo-4-phenyl-2,3-dihydroimidazol-1-yl)piperidin-1-yl)ethyl)-6,7,9,10-tetrahydroazepino[3,4-e]indazol-8(3H)-one]
14 | 0.1 to 10 | 0.1 to 10 | CC(C)(C)CN1Cc2c(cc(Cl)c3[nH]ncc23)C[C@@H](CC(=O)N2CCC(n3cc(-c4ccccn4)[nH]c3=O)CC2)C1=O [Example 45, (S)-4-Chloro-9-neopentyl-7-(2-oxo-2-(4-(2-oxo-4-(pyridin-2-yl)-2,3-dihydroimidazol-1-yl)piperidin-1-yl)ethyl)-6,7,9,10-tetrahydroazepino[3,4-e]indazol-8(3H)-one]
15 | 0.1 to 10 | 0.1 to 10 | CC(C)(C)CN1Cc2c(cc(Cl)c3[nH]ncc23)C[C@@H](CC(=O)N2CCC3(CC2)NC(=O)Nc2ccccc23)C1=O [Example 46]
16 | 10 to 100 | 10 to 100 | CC(C)(C)CN1Cc2c(cc(Cl)c3[nH]ncc23)C[C@@H](CC(=O)N2CCC(c3cc4cccc(F)c4[nH]c3=O)CC2)C1=O [Example 47, (S)-4-Chloro-7-(2-(4-(8-fluoro-2-oxo-1,2-dihydroquinolin-3-yl)piperidin-1-yl)-2-oxoethyl)-9-neopentyl-6,7,9,10-tetrahydroazepino[3,4-e]indazol-8(3H)-one]
17 | 0.1 to 10 | 0.1 to 10 | O=C(C[C@@H]1Cc2cc(Cl)c3[nH]ncc3c2CN(Cc2ccncc2)C1=O)N1CCC(N2Cc3ccccc3NC2=O)CC1 [Example 49, (S)-4-Chloro-7-(2-oxo-2-(4-(2-oxo-1,2-dihydroquinazolin-3(4H)-yl)piperidin-1-yl)ethyl)-9-(pyridin-4-ylmethyl)-6,7,9,10-tetrahydroazepino[3,4-e]indazol-8(3H)-one]
18 | 0.1 to 10 | 0.1 to 10 | O=C(C[C@@H]1Cc2cc(Cl)c3[nH]ncc3c2CN(Cc2ccncc2)C1=O)N1CCC(N2Cc3cccc(F)c3NC2=O)CC1 [Example 50, (S)-4-Chloro-7-(2-(4-(8-fluoro-2-oxo-1,2-dihydroquinazolin-3(4H)-yl)piperidin-1-yl)-2-oxoethyl)-9-(pyridin-4-ylmethyl)-6,7,9,10-tetrahydroazepino[3,4-e]indazol-8(3H)-one]
